Measurements from patent US9993459B2, “Selective HDAC6 inhibitors and uses thereof” (Universiteit Gent, priority 2015, dated 2018).

Legend:
HDAC3 = HDAC3 (Homo sapiens, UniProt O15379); experiment: In vitro HDAC isozyme selectivity screen: HDAC3; assay type: biochemical
NF-κβ = experiment: NF-κβ-dependent luciferase reporter p(IL6kB)350hu.IL6P-luc in TNF-activated A549 cells; assay type: cell-based; settings: TNF-activated A549, 1 μM or 10 μM
Experimental: (§1) FIG. 2: A549 cells with the stably integrated recombinant reporter gene p(GRE)2-50-luc (A) were pre-incubated with respective solvents, the selective Glucocorticoid Receptor modulator CpdA (10 μM), 7a, (1 μM or 10 μM), 7b (1 μM or 10 μM), 13a (1 μM or 10 μM) for 1 h after which the synthetic glucocorticoid dexamethasone (DEX,1 μM) was added, where indicated, for 5 h. A549 cells with the stably integrated recombinant reporter gene p(IL6kB)350hu.IL6P-luc (B) or Collagenase-luc (C) were pre-incubated with respective solvents, DEX (1 μM), CpdA (10 μM), 7a, (1 μM or 10 μM), 7b (1 μM or 10 μM), 13a (1 μM or 10 μM) for 1 h after which TNF (2000 units/ml) or PMA (20 nM) were added, where indicated, for 5 h. Cell lysates were assayed for luciferase activities. Promoter activities are expressed as relative induction factor calculated as percentage of maximal DEX (A), TNF (B) or PMA (C) responses. […] Assays were performed in triplicate, and results are averages of at least three independent experiments and shown ±S.D. ****p<0.0001; ***p<0.001; **p<0.01; *p<0.05. Statistical significance was determined on the averaged results, and analysis performed using one-way ANOVA tests followed by a Tukey multiple comparison post test. […]

AP-1 = experiment: AP1-dependent luciferase reporter pCollagenase-luc in PMA-treated A549 cells; assay type: cell-based; settings: A549, 10 μM
Experimental: as §1

HDAC3, sequence (O15379 whole entry, species assumed): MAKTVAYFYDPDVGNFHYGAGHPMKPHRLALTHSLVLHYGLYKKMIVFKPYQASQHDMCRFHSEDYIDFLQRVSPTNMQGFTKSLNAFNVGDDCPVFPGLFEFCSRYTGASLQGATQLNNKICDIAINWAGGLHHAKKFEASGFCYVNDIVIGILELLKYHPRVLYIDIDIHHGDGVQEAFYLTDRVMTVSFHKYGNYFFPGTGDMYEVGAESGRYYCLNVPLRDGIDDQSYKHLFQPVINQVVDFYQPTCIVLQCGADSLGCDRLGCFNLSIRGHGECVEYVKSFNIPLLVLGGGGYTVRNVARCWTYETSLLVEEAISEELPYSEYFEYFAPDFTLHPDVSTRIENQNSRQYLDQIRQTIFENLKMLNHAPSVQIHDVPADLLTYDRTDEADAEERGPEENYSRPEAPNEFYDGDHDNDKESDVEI
HDAC3, sequence (Q9Y618 395-489 partner limits assumed, species assumed): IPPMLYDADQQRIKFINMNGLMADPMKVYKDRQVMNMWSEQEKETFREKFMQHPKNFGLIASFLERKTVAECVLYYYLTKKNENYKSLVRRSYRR

| Compound | IC50 (HDAC3; Table 2) | melting point | block of the activity of NF-κβ (NF-κβ) | effect at 100 μM, HDAC3 (HDAC3; 100 μM) | AP1-dependent promoter activity as compared to solvent control (DMSO) (AP-1) |
| --- | --- | --- | --- | --- | --- |
| O=C(NO)c1ccc(NCc2csc3cc(Br)ccc23)cc1 [Compound 13a, 6-bromo-3-[(4-hydroxycarbamoylphenyl)aminomethyl]-benzothiophene] | 6.6 µM | 179.5 °C | – | – | – |
| O=C(NO)c1ccc(NCc2csc3ccccc23)cc1 [Compound 7a, 3-[(4-hydroxycarbamoylphenyl)aminomethyl]benzothiophene] | – | 191 °C | not able to block the activity of NF-κβ | – | – |
| O=C(NO)c1ccc(NCc2csc3ccc(Br)cc23)cc1 [Compound 7b, 5-bromo-3-[(4-hydroxycarbamoylphenyl)aminomethyl]-benzothiophene] | – | – | not able to block the activity of NF-κβ | less than 50% | clearly induced the AP1-dependent promoter activity |
